Data reported in patent US4730060A, “Carbacyclin derivatives, method of manufacturing the same and therapeutic agents containing these compounds” (Kotobuki Seiyaku Co. Ltd., priority 1986, dated 1988).

Assays:
ethanol-induced ulcer = assay: Anti-ulcer activities, ethanol-induced ulcer; assay type: in vivo; conditions: po, 1 h, rat, perorally, 30 min before ethanol; for inhibition in vivo at 0.1 mg/kg: dose 100 μg/kg; for inhibition in vivo at 0.03 mg/kg: dose 30 μg/kg; for inhibition in vivo at 0.01 mg/kg: dose 10 μg/kg; for inhibition in vivo at 0.3 mg/kg: dose 300 μg/kg
Protocol: 1. Anti-ulcer activities, Ethanol-induced ulcer
Inhibitory effects of ethanol-induced ulcer are determined by the method of A. Robert (Gastroenterology 77, 433-43). Rats are fasted for 24 hrs. and are given 1 ml of absolute ethanol perorally. 1 hour after administration of ethanol, the stomach of the rat is removed. The length of each ulcer occurring in the grandulor stomach is determined and each ulcer in one rat is acounted as ulcer-index. The test compounds are given perorally 30 minutes before ethanol administration.

[1] = Stability test in buffer solutions, by thin layer chromatography; assay type: physicochemical; conditions: pH 7.4, room temperature, 2 months
Protocol: About 1.5 mg of test compound was dissolved in a drop of methanol and diluted in each 1.5 ml of a buffer solution *adjusted to pH 5.2, 7.2, 7.4, 9.2, respectively. Stability test was carried out at 37° C. in the case of pH 5.2, 7.2, 9.2 and at room temperature in the case of pH 7.4,.
Using a thin layer chromatography as the identification method, the test solution in each buffer solution of pH 5.2, 7.2, 7.4 was extracted with ethyl acetate and in the case of the test solution of […], it was diluted with water, acidified at pH 4 with 10% HCl and extracted with ethyl acetate.
*pH 5.2 (0.2M Pottasium hydrogen phthalate)

Question: For `O=C(O)CCCC=C1C[C@H]2C[C@@H](O)[C@H](/C=C/[C@@H](O)c3ccc4c(c3)OCCO4)[C@H]2C1` [Compound 1, 15α-Hydroxy-15-(benzodioxane-6-yl)-carbacyclin], which inhibition in vivo at 0.1 mg/kg (ethanol-induced ulcer) is on record?
Answer: 41.6%

Question: Which inhibition in vivo at 0.03 mg/kg (ethanol-induced ulcer) does the source give for `O=C(O)CCCC=C1C[C@H]2C[C@@H](O)[C@H](C#C[C@@H](O)C3Cc4ccccc4C3)[C@H]2C1` [Compound 3, 13,14-Dehydro-15α-hydroxy-15-(indan-2-yl)-carbacyclin] here?
Answer: 93.4%

Question: Which results are given for `O=C(O)CCCC=C1C[C@H]2C[C@@H](O)[C@H](/C=C/[C@@H](O)C3COc4ccccc4O3)[C@H]2C1` (stereo partly drawn) [Compound 5, 15α-Hydroxy-15-(benzodioxane-2-yl)-carbacyclin]?
Answer: Stability (change in thin layer chromatography) [1]: No change; inhibition in vivo at 0.01 mg/kg (ethanol-induced ulcer): 71.9%

Question: Which inhibition in vivo at 0.1 mg/kg (ethanol-induced ulcer) does the source give for `O=C(O)CCCC=C1C[C@H]2C[C@@H](O)[C@H](/C=C/[C@@H](O)C3Cc4ccccc4C3)[C@H]2C1` [Compound 7, 15α-Hydroxy-15-(indan-2-yl)-carbacyclin] here?
Answer: 68.7%

Question: Which inhibition in vivo at 0.3 mg/kg (ethanol-induced ulcer) does the source give for `Cc1ccc2c(c1)OCC([C@H](O)/C=C/[C@@H]1[C@H]3CC(=CCCCC(=O)O)C[C@H]3C[C@H]1O)O2` (stereo partly drawn) [Compound 9, 15α-Hydroxy-15-(6-methylbenzodioxane-2-yl)-carbacyclin] here?
Answer: 80.6%

Question: With `COc1ccc2c(c1)OCC([C@H](O)/C=C/[C@@H]1[C@H]3CC(=CCCCC(=O)O)C[C@H]3C[C@H]1O)O2` (stereo partly drawn) [Compound 11, 15α-Hydroxy-15-(6-methoxybenzodioxane-2-yl)-carbacyclin] as the molecule, how does the inhibition in vivo at 0.03 mg/kg (ethanol-induced ulcer) read?
Answer: 82.1%

Question: For `CC1([C@H](O)/C=C/[C@@H]2[C@H]3CC(=CCCCC(=O)O)C[C@H]3C[C@H]2O)COc2ccccc2O1` (stereo partly drawn) [Compound 17, 15β-Hydroxy-15-(2-methylbenzodioxane-2-yl)-carbacyclin], which inhibition in vivo at 0.1 mg/kg (ethanol-induced ulcer) is on record?
Answer: 72.6%

Question: For `O=C(O)CCCC=C1C[C@H]2C[C@@H](O)[C@H](/C=C/[C@@H](O)C3Cc4ccc([N+](=O)[O-])cc4C3)[C@H]2C1` (stereo partly drawn) [Compound 23, 15α-Hydroxy-15-(5-nitroindan-2-yl)-carbacyclin], which inhibition in vivo at 0.3 mg/kg (ethanol-induced ulcer) is on record?
Answer: 98.9%

Question: For `CC1([C@H](O)/C=C/[C@@H]2[C@H]3CC(=CCOCC(=O)O)C[C@H]3C[C@H]2O)Cc2ccccc2C1` [Compound 33, 15α-Hydroxy-15-(2-methylindan-2-yl)-3-oxa-carbacyclin], which inhibition in vivo at 0.03 mg/kg (ethanol-induced ulcer) is on record?
Answer: 47.6%

Question: With `O=C(O)COCC=C1C[C@H]2C[C@@H](O)[C@H](/C=C/[C@@H](O)C3Cc4ccccc4C3)[C@H]2C1` [Compound 35, 15α-Hydroxy-15-(indan-2-yl)-3-oxa-carbacyclin] as the molecule, how does the inhibition in vivo at 0.03 mg/kg (ethanol-induced ulcer) read?
Answer: 44.6%

Question: For `O=C(O)COCC=C1C[C@H]2C[C@@H](O)[C@H](/C=C/[C@@H](O)C3COc4ccccc4O3)[C@H]2C1` (stereo partly drawn) [Compound 37, 15α-Hydroxy-15-(1,4-benzodioxane-2-yl)-3-oxa-carbacyclin], which inhibition in vivo at 0.1 mg/kg (ethanol-induced ulcer) is on record?
Answer: 51.6%

Question: With `CC1([C@H](O)/C=C/[C@@H]2[C@H]3CC(CCOCC(=O)O)=C[C@H]3C[C@H]2O)Cc2ccccc2C1` [Compound 41, 15α-Hydroxy-15-(2-methylindan-2-yl)-3-oxa-isocarbacyclin] as the molecule, how does the inhibition in vivo at 0.01 mg/kg (ethanol-induced ulcer) read?
Answer: 64.2%

Question: For `O=C(O)COCCC1=C[C@H]2C[C@@H](O)[C@H](/C=C/[C@@H](O)C3Cc4ccccc4C3)[C@H]2C1` [Compound 43, 15α-Hydroxy-15-(indan-2-yl)-3-oxa-isocarbacyclin], which inhibition in vivo at 0.1 mg/kg (ethanol-induced ulcer) is on record?
Answer: 51.8%

Question: With `O=C(O)COCCC1=C[C@H]2C[C@@H](O)[C@H](/C=C/[C@@H](O)C3COc4ccccc4O3)[C@H]2C1` (stereo partly drawn) [Compound 45, 15α-Hydroxy-15-(1,4-benzodioxane-2-yl)-3-oxa-isocarbacyclin] as the molecule, how does the inhibition in vivo at 0.01 mg/kg (ethanol-induced ulcer) read?
Answer: 58.9%
